US10358500B2, “Humanized antibodies that bind LGR5” (Bionomics Inc., priority 2014, dated 2019)

Columns and labels:
LGR5 [1] = assay: LGR5 expression in treated CRC cell lines by flow cytometry; format: cell-based; conditions: 1 um, 72 hrs
Procedure: A panel of CRC cell lines including DLD1, HCT116, LS174t, LoVo, SW48, SW480 and SW620 were treated with a PI3K/mTOR dual inhibitor (NVP) or 2 different cytotoxic agents including SN38 (active metabolite of Irinotecan) or 5FU (5 fluorouracil). Cells were treated with the above agents at 1 um and were harvested after 72 hrs. Cells were then stained with anti-LGR5 Mab conjugated to Alexa Fluor647 and the data were analyzed by flow cytometry using a FACScalibur.

AsPC-1 cancer stem cells = assay: limiting dilution experiment, AsPC-1 tumors; format: in vivo, mice; conditions: day 40 post treatment, gemcitabine single agent
LGR5 [2] = assay: LGR5 expression in treated pancreatic cell lines by flow cytometry; format: cell-based
Procedure: In addition to CRC cell lines to further expand the above findings, expression of LGR5 was investigated in a series of pancreatic cell lines treated with relevant standard of care including nab-paclitaxel, gemcitabine and taxol and also small molecule inhibitors targeting most relevant pathways in pancreatic cancer such as inhibitors of PI3K, MEK and GSK3β. The pancreatic cell lines that were tested include: AsPc1, HPAFII, PANC1, BxPC3, CFPAC, PANC10.05, Capan2 and SW1990.

PANC1 cancer stem cells = assay: limiting dilution re-implant of treated PANC1 tumors; format: in vivo, mice; conditions: gemcitabine alone
Source text: Tumors cells from these treatment groups were harvested, dissociated, pooled and re-implanted in a limiting dilution assay (500, 1500, 4500 or 13500 cells/animal) into a new cohort of CB.17 SCID mice and allowed to grow with no treatment.

Structure (SMILES): O=c1[nH]cc(F)c(=O)[nH]1 [5FU, 5 fluorouracil]
- LGR5 expression by flow cytometry (LGR5 [1]; any of the CRC lines (DLD1, HCT116, LS174t, LoVo, SW48, SW480, SW620)): did not induce LGR5 expression

Structure (SMILES): CCc1c2c(nc3ccc(O)cc13)-c1cc3c(c(=O)n1C2)COC(=O)[C@]3(O)CC [SN38]
- LGR5 expression by flow cytometry (LGR5 [1]; HCT116, LS174t, SW48, SW480 and especially SW620 cells): promoted LGR5 expression

Structure (SMILES): Nc1ccn([C@@H]2O[C@H](CO)[C@@H](O)C2(F)F)c(=O)n1 [gemcitabine, reference compound]
- percentage of tumor bearing mice (AsPC-1 cancer stem cells; AsPC-1, 4500 cells): 40%
- percentage of tumor bearing mice (AsPC-1 cancer stem cells; AsPC-1, 13500 cells): 80%
- LGR5 expression by flow cytometry (LGR5 [2]; PANC1): upregulates LGR5
- frequency of engraftment (PANC1 cancer stem cells; PANC1, 4500 cells): 40%
- frequency of engraftment (PANC1 cancer stem cells; PANC1, 13500 cells): 100%

Structure (SMILES): CC(=O)O[C@H]1C(=O)[C@@]2(C)[C@H]([C@H](OC(=O)c3ccccc3)[C@]3(O)C[C@H](OC(=O)[C@H](O)[C@@H](NC(=O)c4ccccc4)c4ccccc4)C(C)=C1C3(C)C)[C@]1(OC(C)=O)CO[C@@H]1C[C@@H]2O [taxol]
- LGR5 expression by flow cytometry (LGR5 [2]; HPAFII): increased LGR5 expression
